We go through ten compounds from patent US11149018B2, “Substituted N-arylethyl-2-aminoquinoline-4-carboxamides and use thereof” (Bayer Aktiengesellschaft, priority 2017, dated 2021).

SMILES strings stand for the structures.

This test deals with FP receptor (Homo sapiens (Human), UniProt P43088). Nature of the test: In vitro test of inhibition of human FP receptor activity (PGF2α-induced calcium flux in FP-expressing CHEM1 cells). In kind it is cell-based. The conditions noted are these: PGF2α 2 nM, some mean values of multiple determinations. The gist of the method: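 FP antagonism in FP-expressing CHEM1 cells loaded with Fluo-8. Compound preincubated 10 min at 37° C, then receptor stimulated with 2 nM (final) PGF2α in calcium-free Tyrode with 2 mM CaCl2.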
Chain of FP receptor (P43088 whole entry): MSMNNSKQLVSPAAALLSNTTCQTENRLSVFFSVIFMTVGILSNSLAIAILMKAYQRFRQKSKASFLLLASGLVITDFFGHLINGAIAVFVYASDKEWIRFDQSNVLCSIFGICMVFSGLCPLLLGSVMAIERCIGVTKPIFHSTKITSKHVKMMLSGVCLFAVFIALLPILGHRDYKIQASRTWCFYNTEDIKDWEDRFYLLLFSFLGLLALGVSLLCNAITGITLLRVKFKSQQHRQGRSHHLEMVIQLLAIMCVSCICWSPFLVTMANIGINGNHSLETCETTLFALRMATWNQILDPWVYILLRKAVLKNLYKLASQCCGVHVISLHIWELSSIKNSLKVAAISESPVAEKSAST

Usually IC50 stands for the concentration needed to halve the response being measured.

As for `[2H]C1([2H])N(c2nc3ccc(Br)cc3c(C(=O)NCC(CCC(=O)O)c3ccccc3OC(F)(F)F)c2C)C([2H])([2H])C([2H])([2H])C([2H])([2H])C1([2H])[2H]` (single isomer, unassigned; (+)) [Example 271, (+)-5-[({6-Bromo-3-methyl-2-[(^2H10)piperidin-1-yl]quinolin-4-yl}carbonyl)amino]-4-[2-(trifluoromethoxy)phenyl]pentanoic acid], the IC50 is 6.3 nM.
For `[2H]C1([2H])N(c2nc3ccc(Br)cc3c(C(=O)NCC(CCC(=O)O)c3ccccc3OC(F)(F)F)c2C)C([2H])([2H])C([2H])([2H])C1([2H])[2H]` (single isomer, unassigned; (+)) [Example 279, (+)-5-[({6-Bromo-3-methyl-2-[(^2H8)pyrrolidin-1-yl]quinolin-4-yl}carbonyl)amino]-4-[2-(trifluoromethyl)phenyl]pentanoic acid], the IC50 was found to be 11 nM.
For `[2H]C1([2H])N(c2nc3ccc(Br)cc3c(C(=O)NCC(CCC(=O)O)c3c(F)ccc(F)c3Cl)c2C)C([2H])([2H])C([2H])([2H])C1([2H])[2H]` (single isomer, unassigned; (+)) [Example 281, (+)-5-[({6-Bromo-3-methyl-2-[(^2H8)pyrrolidin-1-yl]quinolin-4-yl}carbonyl)amino]-4-(2-chloro-3,6-difluorophenyl)pentanoic acid] the value was 80 nM; for `COc1ccccc1C(CCC(=O)O)CNC(=O)c1c(C)c(N2CCCC(F)(F)C2)nc2ccc(Br)cc12` (single isomer, unassigned; (+)) [Example 289, (+)-5-({[6-Bromo-2-(3,3-difluoropiperidin-1-yl)-3-methylquinolin-4-yl]carbonyl}amino)-4-(2-methoxyphenyl)pentanoic acid], 2.4 nM; for `Cc1c(N2CCCCC2)nc2ccc(Br)cc2c1C(=O)NCC(CC(=O)O)c1c(F)cccc1Cl` (single isomer, unassigned; (-)) [Example 2, (−)-4-({[6-Bromo-3-methyl-2-(piperidin-1-yl)quinolin-4-yl]carbonyl}amino)-3-(2-chloro-6-fluorophenyl)butanoic acid], 23 nM.
For `Cc1c(N2CCCCC2)nc2ccc(Br)cc2c1C(=O)NCC(CCC(=O)O)c1cc(F)ccc1Cl` (single isomer, unassigned; (-)) [Example 6, (−)-5-({[6-Bromo-3-methyl-2-(piperidin-1-yl)quinolin-4-yl]carbonyl}amino)-4-(2-chloro-5-fluorophenyl)pentanoic acid] the value was 7.8 nM; for `Cc1c(N2CCSCC2)nc2ccc(Br)cc2c1C(=O)NCC(CCC(=O)O)c1ccccc1Cl` (single isomer, unassigned; (-)) [Example 27, (−)-5-({[6-Bromo-3-methyl-2-(thiomorpholin-4-yl)quinolin-4-yl]carbonyl}amino)-4-(2-chlorophenyl)pentanoic acid], 14 nM.
Take `Cc1c(N2CCCO2)nc2ccc(Br)cc2c1C(=O)NCC(CCC(=O)O)c1ccccc1Cl` (single isomer, unassigned; (-)) [Example 39, (−)-5-({[6-Bromo-3-methyl-2-(1,2-oxazolidin-2-yl)quinolin-4-yl]carbonyl}amino)-4-(2-chlorophenyl)pentanoic acid]: the IC50 worked out at 24 nM.
For `Cc1c(N2CCCC(C)(C)C2)nc2ccc(Br)cc2c1C(=O)NCC(CCC(=O)O)c1ccccc1Cl` (single isomer, unassigned; (-)) [Example 43, (−)-5-({[6-Bromo-2-(3,3-dimethylpiperidin-1-yl)-3-methylquinolin-4-yl]carbonyl}amino)-4-(2-chlorophenyl)pentanoic acid] the value was 90 nM; for `Cc1c(N2CCCC(C)C2)nc2ccc(Br)cc2c1C(=O)NCC(CCC(=O)O)c1ccccc1Cl` (single isomer, unassigned; (-)) [Example 46, (−)-5-[({6-Bromo-3-methyl-2-[3-methylpiperidin-1-yl]quinolin-4-yl}carbonyl)amino]-4-(2-chlorophenyl)pentanoic acid], 1.3 nM.
